Results: patent EP4755885A1 (Shanghai Hansoh Biomedical Co., Ltd., priority 2023, dated 2025)

Columns and labels:
[1] = Pharmacokinetic evaluation in mice, oral administration; format: in vivo, Balb/c mice; settings: p.o. 5 mg/kg, plasma, not marked single PK (cassette PK)
Method: Balb/c mice were used as test animals to study the pharmacokinetic behavior of the compound of the present invention in mice (plasma) at a dose of 5 mg/kg administered orally and 1 mg/kg administered intravenously.
Balb/c mice, 3 per group, male.
Preparation of drug for oral administration: 10%PEG400/10%PG/80% glycine buffer (100 mM glycine, 64 Mm NaOH, […]) buffer.
10 ml of PEG400, 10 ml of PG, and 80 ml of (100 mM glycine, 64 Mm NaOH, pH = 9) were measured into a 100 ml volumetric flask, vortexed, mixed homogeneously, and sonicated to obtain a clear solution.
Single PK: An example compound was weighed into a 4 mL glass bottle. The solution was added, and sonication was performed for 10 min to obtain a colorless clear solution having a concentration of 0.5 mg/mL.
The solution was added, and sonication was performed for 10 min to obtain a colorless clear solution having a concentration of 0.5 mg/mL.
Three Balb/c mice, male, respectively administered p.o. after fasting overnight, at a dose of 5 mg/kg and in an administration volume of 10 mL/kg.
The blood samples were placed in EDTA-K2 anticoagulant tubes and centrifuged at 6000 rpm at 4°C for 6 min to separate plasma, which was stored at -80°C. The mice were fed 4 h after administration.
• 1) 40 µL of a plasma sample was added with 160 µL of acetonitrile for precipitation, and after mixing, the mixture was centrifuged at 3500 × g for 5 to 20 min. • 2) The supernatant solution after treatment was taken for LC/MS/MS analysis of the concentration of the test compound. The LC/MS/MS analysis instrument was AB Sciex API 4000 Qtrap.
• Liquid phase condition: Shimadzu LC-20AD pump • Chromatographic column: Agilent ZORBAX XDB-C18 (50×2.1 mm, 3.5 µm) Mobile phase: Solution A was 0.1% formic acid aqueous solution, and Solution B was acetonitrile • Flow rate: 0.4 mL/min • Elution time: 0-4.0 min, the eluent was as follows:
Main pharmacokinetic parameters were calculated using WinNonlin 6.1.

[2] = target: T1, human GLP-1 receptor (Homo sapiens, UniProt P43220); test: cAMP production in cell line stably transformed with human GLP1 receptor, 30 min co-incubation (HTRF); format: cell-based; settings: CHO-K1/GLP-1R/CRE-luc cells, stimulation for 0.5 h, read-out: EC50
T1 construct: expressed in transfected cells
T1 sequence (P43220 24-463): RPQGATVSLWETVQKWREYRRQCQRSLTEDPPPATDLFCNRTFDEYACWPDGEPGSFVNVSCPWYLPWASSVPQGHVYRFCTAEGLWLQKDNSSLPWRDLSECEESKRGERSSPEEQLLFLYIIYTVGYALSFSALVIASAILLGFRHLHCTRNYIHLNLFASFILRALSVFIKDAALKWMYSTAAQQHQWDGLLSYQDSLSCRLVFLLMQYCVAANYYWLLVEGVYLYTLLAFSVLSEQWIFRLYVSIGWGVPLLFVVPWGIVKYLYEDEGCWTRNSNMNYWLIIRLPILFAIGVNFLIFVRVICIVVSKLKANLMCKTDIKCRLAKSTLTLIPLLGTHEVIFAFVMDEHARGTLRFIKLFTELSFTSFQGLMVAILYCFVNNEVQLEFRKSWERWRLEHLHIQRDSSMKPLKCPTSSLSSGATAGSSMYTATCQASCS
Method: The purpose of this assay example is to test the ability of the compound to activate the human GLP-1 receptor on cell surface. The EC50 for stimulated cAMP production after activation characterizes the ability of the compound to activate the human GLP-1 receptor.
In this experiment, the compound and cells were co-incubated for 30 min.
Frozen cell line CHO-K1/GLP-1R/CRE-luc stably transformed with human GLP1 receptor was removed from a liquid nitrogen tank, and was placed in a 37°C water bath for rapid thawing. The cells were resuspended in DMEM/F12 medium, and after centrifugation, were washed once. The cells were resuspended in an experimental buffer, i.e., DMEM/F12 medium containing 0.1% casein. After centrifugation, cell density was adjusted using the experimental buffer. The cells were plated onto a 384-well plate at a density of 1500 cells/5 µL/well. Then, each well was added with 2.5 µL of IBMX working solution prepared with the buffer, the final concentration of IBMX being 0.5 mM, and 2.5 µL of a serially diluted compound sample (starting from […], 3-fold dilution, 12 concentrations). The plate was centrifuged at 1000 rpm for 1 min, and was stood for incubation at 37°C for 0.5 h. Determination was performed using the Cisbio cAMP - Gs Dynamic kit. cAMP-d2 and anti-cAMP-Eu3+-Cryptate were diluted 18-fold and 20-fold respectively with cAMP Lysis & Detection Buffer, and were respectively mixed homogeneously. Each well was added with 5 µL of diluted cAMP-d2 solution, and the plate was centrifuged at 1000 rpm for 1 min, and shaken for 30 seconds for homogeneous mixing. Then, each well was added with 5 µL of diluted anti-cAMP-Eu3+-Cryptate solution, and the plate was centrifuged at 1000 rpm for 1 min and was incubated in the dark at room temperature for 1 h. HTRF signals were read using the Biotek Synergy H1 microplate reader, the excitation wavelength being 320 nm and the emission wavelengths being 620 nm and 665 nm.
The signal-to-signal ratio was calculated (665 nm/620 nm * 10,000). Nonlinear fitting between the signal-to-signal ratio and the sample concentration was performed in GraphPad Prism 10 using a four-parameter equation to obtain the EC50 value.

Row | SMILES | EC50 [2] [nM] | other results
1 | Cc1cc(-n2nc3c(c2-n2ccn(-c4ccc(CC(=O)N(C)C)cc4F)c2=O)[C@H](C)N(C(=O)c2cc4cc([C@H]5CCOC(C)(C)C5)ccc4n2[C@@]2(c4noc(=O)[nH]4)C[C@@H]2C)CC3)cc(C)c1F [Example 7] | 0.3 | AUC(0-inf) ([1]; mouse, in vivo, po): 10800 ng·h/mL; AUC(0-t) ([1]; mouse, in vivo, po): 10300 ng·h/mL; Cmax ([1]; mouse, in vivo, po): 2970 ng/mL; Tmax ([1]; mouse, in vivo, po): 30 min; MRT inf ([1]; mouse, in vivo, po, read-out: MRT 0-∞): 2.8 h; tl/2 [1]: 1.6 h
2 | Cc1cc(-n2nc3c(c2-n2ccn(-c4ccc5c(c4)OCc4nnc(C)n4-5)c2=O)[C@H](C)N(C(=O)c2cc4cc([C@H]5CCOC(C)(C)C5)ccc4n2[C@@]2(c4noc(=O)[nH]4)C[C@@H]2C)CC3)cc(C)c1F [Example 19] | 0.88 | –
3 | Cc1cc(-n2nc3c(c2-n2ccn(-c4cc5c6c(c4)OCC(=O)N6CCC5)c2=O)[C@H](C)N(C(=O)c2cc4cc([C@H]5CCOC(C)(C)C5)ccc4n2[C@@]2(c4noc(=O)[nH]4)C[C@@H]2C)CC3)cc(C)c1F [Example 41] | 0.9 | –
4 | [2H]C([2H])([2H])N1C(=O)C2CC2c2cc(-n3ccn(-c4c5c(nn4-c4cc(C)c(F)c(C)c4)CCN(C(=O)c4cc6cc([C@H]7CCOC(C)(C)C7)ccc6n4[C@@]4(c6noc(=O)[nH]6)C[C@@H]4C)[C@H]5C)c3=O)ccc21 (stereo partly drawn) [Example 61] | 1.39 | –
5 | Cc1cc(-n2nc3c(c2-n2ccn(-c4ccc5c(c4F)CCc4nnc(C)n4-5)c2=O)[C@H](C)N(C(=O)c2cc4cc([C@H]5CCOC(C)(C)C5)ccc4n2[C@@]2(c4noc(=O)[nH]4)C[C@@H]2C)CC3)cc(C)c1F [Example 339] | 0.51 | –
6 | Cc1cc(-n2nc3c(c2-n2ccn(-c4ccc5c(c4)CCc4nnnn4-5)c2=O)[C@H](C)N(C(=O)c2cc4cc([C@H]5CCOC(C)(C)C5)ccc4n2[C@@]2(c4noc(=O)[nH]4)C[C@@H]2C)CC3)cc(C)c1F [Example 342] | 1.5 | –
